Results published in ChEMBL document CHEMBL4842357, “Discovery of Novel Apigenin-Piperazine Hybrids as Potent and Selective Poly (ADP-Ribose) Polymerase-1 (PARP-1) Inhibitors for the Treatment of Cancer” (J Med Chem, 2021).

Key:
Homo sapiens = species: Homo sapiens; assay: Selectivity index, ratio of IC50 for inhibition of recombinant human full-length PARP-2 to IC50 for inhibition of recombinant human full-length PARP-1
[1] = target: Poly [ADP-ribose] polymerase 2 (Homo sapiens, UniProt Q9UGN5); assay: Inhibition of recombinant human full-length PARP-2 using biotinylated substrate
[2] = target: Poly [ADP-ribose] polymerase 1 (Homo sapiens, UniProt P09874); assay: Inhibition of recombinant human full-length PARP-1 using biotinylated substrate
Sequence of Poly [ADP-ribose] polymerase 1 (P09874 whole entry): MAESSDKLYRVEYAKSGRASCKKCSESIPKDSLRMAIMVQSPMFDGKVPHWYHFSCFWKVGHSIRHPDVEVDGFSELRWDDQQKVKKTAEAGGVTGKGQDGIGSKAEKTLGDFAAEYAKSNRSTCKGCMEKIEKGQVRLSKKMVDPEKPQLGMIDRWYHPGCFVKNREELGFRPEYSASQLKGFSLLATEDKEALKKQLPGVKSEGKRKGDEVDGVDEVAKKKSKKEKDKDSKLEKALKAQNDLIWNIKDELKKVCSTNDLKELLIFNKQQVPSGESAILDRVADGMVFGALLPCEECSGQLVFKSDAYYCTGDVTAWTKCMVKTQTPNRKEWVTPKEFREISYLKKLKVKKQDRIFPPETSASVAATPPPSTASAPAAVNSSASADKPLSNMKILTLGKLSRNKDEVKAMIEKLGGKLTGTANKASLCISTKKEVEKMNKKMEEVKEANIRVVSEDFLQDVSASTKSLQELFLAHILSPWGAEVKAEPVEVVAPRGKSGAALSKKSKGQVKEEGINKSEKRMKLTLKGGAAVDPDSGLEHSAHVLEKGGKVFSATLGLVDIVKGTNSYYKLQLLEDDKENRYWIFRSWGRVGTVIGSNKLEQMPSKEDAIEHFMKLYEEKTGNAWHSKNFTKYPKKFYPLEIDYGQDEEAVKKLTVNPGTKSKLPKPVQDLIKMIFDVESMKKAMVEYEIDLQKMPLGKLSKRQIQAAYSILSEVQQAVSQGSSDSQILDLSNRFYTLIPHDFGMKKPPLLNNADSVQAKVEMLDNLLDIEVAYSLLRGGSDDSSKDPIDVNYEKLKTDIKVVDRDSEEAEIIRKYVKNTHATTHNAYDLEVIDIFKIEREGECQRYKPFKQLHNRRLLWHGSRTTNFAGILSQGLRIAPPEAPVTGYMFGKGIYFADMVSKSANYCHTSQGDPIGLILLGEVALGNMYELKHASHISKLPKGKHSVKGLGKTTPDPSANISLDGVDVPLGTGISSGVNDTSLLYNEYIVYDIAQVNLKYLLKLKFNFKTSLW

Sequence of Poly [ADP-ribose] polymerase 2 (Q9UGN5 whole entry): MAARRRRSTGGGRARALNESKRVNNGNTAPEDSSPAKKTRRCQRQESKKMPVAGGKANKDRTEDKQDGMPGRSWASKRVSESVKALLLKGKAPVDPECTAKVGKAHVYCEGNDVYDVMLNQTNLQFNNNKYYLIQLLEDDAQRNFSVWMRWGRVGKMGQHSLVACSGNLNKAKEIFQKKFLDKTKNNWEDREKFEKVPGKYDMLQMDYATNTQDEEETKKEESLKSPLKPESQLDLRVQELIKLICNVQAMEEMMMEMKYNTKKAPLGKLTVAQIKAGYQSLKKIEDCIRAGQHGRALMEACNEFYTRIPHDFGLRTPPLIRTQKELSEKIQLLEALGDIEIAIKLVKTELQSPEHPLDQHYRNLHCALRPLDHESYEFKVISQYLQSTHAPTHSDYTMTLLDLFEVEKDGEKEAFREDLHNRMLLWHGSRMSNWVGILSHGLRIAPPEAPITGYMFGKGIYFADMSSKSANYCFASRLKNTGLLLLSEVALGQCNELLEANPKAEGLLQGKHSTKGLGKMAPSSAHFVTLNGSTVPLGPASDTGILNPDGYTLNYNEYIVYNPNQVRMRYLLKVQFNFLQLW

O=c1cc(-c2ccc(O)cc2)oc2c(CN3CCC(c4ccccc4)CC3)c(O)cc(O)c12
Ratio IC50 (Homo sapiens): 55.6 | IC50 [1]: 4 µM | IC50 [2]: 0.0719 µM

O=C(c1ccc(Cl)cc1)N1CCN(Cc2c(O)cc(O)c3c(=O)cc(-c4ccc(O)cc4)oc23)CC1
Ratio IC50 (Homo sapiens): 53.4 | IC50 [1]: 3 µM | IC50 [2]: 0.0562 µM

O=c1cc(-c2ccc(O)cc2)oc2c(CN3CCN(Cc4ccc(C(F)(F)F)cc4)CC3)c(O)cc(O)c12
Ratio IC50 (Homo sapiens): 63.7 | IC50 [1]: 1.9 µM | IC50 [2]: 0.0298 µM

O=C(C1CC1)N1CCN(Cc2c(O)cc(O)c3c(=O)cc(-c4ccc(O)cc4)oc23)CC1
Ratio IC50 (Homo sapiens): 66.7 | IC50 [1]: 2.5 µM | IC50 [2]: 0.0375 µM

O=c1cc(-c2ccc(O)cc2)oc2c(CN3CCN(Cc4ccc(F)cc4)CC3)c(O)cc(O)c12
Ratio IC50 (Homo sapiens): 58 | IC50 [1]: 2 µM | IC50 [2]: 0.0345 µM

Cc1ccc(N2CCN(Cc3c(O)cc(O)c4c(=O)cc(-c5ccc(O)cc5)oc34)CC2)cc1
Ratio IC50 (Homo sapiens): 57.7 | IC50 [1]: 2.8 µM | IC50 [2]: 0.0485 µM

O=C(C1CCC1)N1CCN(Cc2c(O)cc(O)c3c(=O)cc(-c4ccc(O)cc4)oc23)CC1
Ratio IC50 (Homo sapiens): 57.1 | IC50 [1]: 2.6 µM | IC50 [2]: 0.0455 µM

O=c1cc(-c2ccc(O)cc2)oc2c(CN3CCN(c4ccc(Cl)cc4)CC3)c(O)cc(O)c12
Ratio IC50 (Homo sapiens): 60.8 | IC50 [1]: 3.7 µM | IC50 [2]: 0.0608 µM

O=c1cc(-c2ccc(O)cc2)oc2c(CN3CCN(Cc4ccoc4)CC3)c(O)cc(O)c12
Ratio IC50 (Homo sapiens): 59.4 | IC50 [1]: 2.6 µM | IC50 [2]: 0.0438 µM

CCOC(=O)C1CCN(Cc2c(O)cc(O)c3c(=O)cc(-c4ccc(O)cc4)oc23)CC1
Ratio IC50 (Homo sapiens): 60.3 | IC50 [1]: 5.6 µM | IC50 [2]: 0.0928 µM

O=c1cc(-c2ccc(O)cc2)oc2c(CN3CCN(c4ccc(C(F)(F)F)cc4)CC3)c(O)cc(O)c12
Ratio IC50 (Homo sapiens): 56.2 | IC50 [1]: 2.8 µM | IC50 [2]: 0.0498 µM

Cc1cc(C)cc(COC(=O)N2CCN(Cc3c(O)cc(O)c4c(=O)cc(-c5ccc(O)cc5)oc34)CC2)c1
Ratio IC50 (Homo sapiens): 57.8 | IC50 [1]: 2 µM | IC50 [2]: 0.0346 µM

O=C(c1ccncc1)N1CCN(Cc2c(O)cc(O)c3c(=O)cc(-c4ccc(O)cc4)oc23)CC1
Ratio IC50 (Homo sapiens): 50.7 | IC50 [1]: 1.4 µM | IC50 [2]: 0.0276 µM

Cc1ccc(-c2cc(=O)c3c(O)cc(O)c(-c4cccc(-c5cc(=O)c6c(O)cc(O)cc6o5)c4)c3o2)cc1
Ratio IC50 (Homo sapiens): 42.2 | IC50 [1]: 12.5 µM | IC50 [2]: 0.296 µM

O=C(c1cccnc1)N1CCN(Cc2c(O)cc(O)c3c(=O)cc(-c4ccc(O)cc4)oc23)CC1
Ratio IC50 (Homo sapiens): 57.2 | IC50 [1]: 1.5 µM | IC50 [2]: 0.0262 µM

Cc1ccc(CN2CCN(Cc3c(O)cc(O)c4c(=O)cc(-c5ccc(O)cc5)oc34)CC2)cc1
Ratio IC50 (Homo sapiens): 58.8 | IC50 [1]: 1.8 µM | IC50 [2]: 0.0306 µM

O=c1cc(-c2ccc(O)cc2)oc2c(CN3CCN(CC4CCCCC4)CC3)c(O)cc(O)c12
Ratio IC50 (Homo sapiens): 54.9 | IC50 [1]: 3.2 µM | IC50 [2]: 0.0583 µM

Cc1ccc(-c2cc(=O)c3c(O)cc(O)c(-c4cccc(-c5cc(=O)c6c(O)cc(O)cc6o5)c4)c3o2)cc1C
Ratio IC50 (Homo sapiens): 50.9 | IC50 [1]: 12.7 µM | IC50 [2]: 0.25 µM

O=C(C1CCCCC1)N1CCN(Cc2c(O)cc(O)c3c(=O)cc(-c4ccc(O)cc4)oc23)CC1
Ratio IC50 (Homo sapiens): 51.7 | IC50 [1]: 2.3 µM | IC50 [2]: 0.0445 µM

O=C(c1ccccc1)N1CCN(Cc2c(O)cc(O)c3c(=O)cc(-c4ccc(O)cc4)oc23)CC1
Ratio IC50 (Homo sapiens): 57.2 | IC50 [1]: 2.9 µM | IC50 [2]: 0.0507 µM

COC(=O)C1CCN(Cc2c(O)cc(O)c3c(=O)cc(-c4ccc(O)cc4)oc23)CC1
Ratio IC50 (Homo sapiens): 68.6 | IC50 [1]: 6.7 µM | IC50 [2]: 0.0976 µM

O=C(c1cccc(C(F)(F)F)c1)N1CCN(Cc2c(O)cc(O)c3c(=O)cc(-c4ccc(O)cc4)oc23)CC1
Ratio IC50 (Homo sapiens): 69.2 | IC50 [1]: 2.9 µM | IC50 [2]: 0.0419 µM

O=c1cc(-c2ccc(O)cc2)oc2c(CN3CCC(CO)CC3)c(O)cc(O)c12
Ratio IC50 (Homo sapiens): 59.8 | IC50 [1]: 4.8 µM | IC50 [2]: 0.0802 µM

O=c1cc(-c2cccc(-c3c(O)cc(O)c4c(=O)cc(-c5ccc(O)c(O)c5)oc34)c2)oc2cc(O)cc(O)c12
Ratio IC50 (Homo sapiens): 45.9 | IC50 [1]: 29.5 µM | IC50 [2]: 0.642 µM

O=C(c1cccc(F)c1F)C1CCN(Cc2c(O)cc(O)c3c(=O)cc(-c4ccc(O)cc4)oc23)CC1
Ratio IC50 (Homo sapiens): 56.8 | IC50 [1]: 4.5 µM | IC50 [2]: 0.0792 µM

COc1ccc(C(=O)N2CCN(Cc3c(O)cc(O)c4c(=O)cc(-c5ccc(O)cc5)oc34)CC2)cc1
Ratio IC50 (Homo sapiens): 57.6 | IC50 [1]: 2.5 µM | IC50 [2]: 0.0434 µM

O=c1cc(-c2cccc(-c3c(O)cc(O)c4c(=O)cc(-c5ccco5)oc34)c2)oc2cc(O)cc(O)c12
Ratio IC50 (Homo sapiens): 38 | IC50 [1]: 14.7 µM | IC50 [2]: 0.387 µM

O=c1cc(-c2cccc(-c3c(O)cc(O)c4c(=O)cc(-c5cccs5)oc34)c2)oc2cc(O)cc(O)c12
Ratio IC50 (Homo sapiens): 55 | IC50 [1]: 11.1 µM | IC50 [2]: 0.202 µM

O=c1cc(-c2cccc(-c3c(O)cc(O)c4c(=O)cc(-c5ccc(C(F)(F)F)cc5)oc34)c2)oc2cc(O)cc(O)c12
Ratio IC50 (Homo sapiens): 52.6 | IC50 [1]: 26.4 µM | IC50 [2]: 0.502 µM

O=C(c1ccccn1)N1CCN(Cc2c(O)cc(O)c3c(=O)cc(-c4ccc(O)cc4)oc23)CC1
Ratio IC50 (Homo sapiens): 59.6 | IC50 [1]: 1.3 µM | IC50 [2]: 0.0218 µM

O=C(OCc1ccccc1)N1CCN(Cc2c(O)cc(O)c3c(=O)cc(-c4ccc(O)cc4)oc23)CC1
Ratio IC50 (Homo sapiens): 47.9 | IC50 [1]: 2.1 µM | IC50 [2]: 0.0438 µM

CC(C)CCN1CCN(Cc2c(O)cc(O)c3c(=O)cc(-c4ccc(O)cc4)oc23)CC1
Ratio IC50 (Homo sapiens): 52.4 | IC50 [1]: 3.7 µM | IC50 [2]: 0.0706 µM

COc1cc(CN2CCN(Cc3c(O)cc(O)c4c(=O)cc(-c5ccc(O)cc5)oc34)CC2)cc(OC)c1
Ratio IC50 (Homo sapiens): 62.5 | IC50 [1]: 1.7 µM | IC50 [2]: 0.0272 µM

O=c1cc(-c2ccc(O)cc2)oc2c(CN3CCN(Cc4ccncc4)CC3)c(O)cc(O)c12
Ratio IC50 (Homo sapiens): 55.5 | IC50 [1]: 1.1 µM | IC50 [2]: 0.0198 µM

CC(=O)N1CCN(Cc2c(O)cc(O)c3c(=O)cc(-c4ccc(O)cc4)oc23)CC1
Ratio IC50 (Homo sapiens): 70.4 | IC50 [1]: 3 µM | IC50 [2]: 0.0426 µM

O=c1cc(-c2ccc(O)cc2)oc2c(CN3CCN(c4ccccc4)CC3)c(O)cc(O)c12
Ratio IC50 (Homo sapiens): 59 | IC50 [1]: 2.1 µM | IC50 [2]: 0.0356 µM

COc1ccc(CN2CCN(Cc3c(O)cc(O)c4c(=O)cc(-c5ccc(O)cc5)oc34)CC2)cc1
Ratio IC50 (Homo sapiens): 56.5 | IC50 [1]: 2 µM | IC50 [2]: 0.0354 µM

O=c1cc(-c2ccc(O)cc2)oc2c(CN3CCN(c4ccc(O)cc4)CC3)c(O)cc(O)c12
Ratio IC50 (Homo sapiens): 73 | IC50 [1]: 2.9 µM | IC50 [2]: 0.0397 µM

O=c1cc(-c2ccc(O)cc2)oc2c(CN3CCN(Cc4ccc(Cl)cc4)CC3)c(O)cc(O)c12
Ratio IC50 (Homo sapiens): 57 | IC50 [1]: 1.8 µM | IC50 [2]: 0.0316 µM

O=c1cc(-c2ccc(O)cc2)oc2c(CN3CCN(CC4CCCO4)CC3)c(O)cc(O)c12 (centres undefined)
Ratio IC50 (Homo sapiens): 61.9 | IC50 [1]: 2.5 µM | IC50 [2]: 0.0404 µM

O=c1cc(-c2ccc(O)cc2)oc2c(CN3CC=C(c4ccccc4)CC3)c(O)cc(O)c12
Ratio IC50 (Homo sapiens): 56.6 | IC50 [1]: 7.9 µM | IC50 [2]: 0.139 µM

O=c1cc(-c2cccc(-c3c(O)cc(O)c4c(=O)cc(-c5ccc(F)cc5)oc34)c2)oc2cc(O)cc(O)c12
Ratio IC50 (Homo sapiens): 47.4 | IC50 [1]: 8.5 µM | IC50 [2]: 0.179 µM

O=c1cc(-c2cccc(-c3c(O)cc(O)c4c(=O)cc(-c5ccc(O)cc5)oc34)c2)oc2cc(O)cc(O)c12
Ratio IC50 (Homo sapiens): 52.5 | IC50 [1]: 10.3 µM | IC50 [2]: 0.196 µM
